The nature of data set [1]: SMCSO bioavailability from single dietary supplementation with Beneforte broccoli and stilton soup (plasma and urine over 24 h). The data set is classed as in vivo, human. From the text: Exposure of prostate tissues to S-methylcysteine sulfoxide may occur either through the systemic circulation in the blood stream, or through urinary reflux. Indeed, urinary reflux into prostatic ducts is common knowledge in the field (Kirby R. S. et al. Intra-prostatic urinary reflux: an aetiological factor in abacterial prostatitis. British Journal of Urology 54, 729-731 (1982)). FIGS. 5 and 6 respectively show the plasma concentration and cumulative excretion of S-methylcysteine sulfoxide in urine following consumption of Beneforté™ broccoli (described, for example, in WO99/052345) and Stilton soup containing 1.2 mmoles of S-methylcysteine sulfoxide.
The change in plasma concentration of S-methylcysteine sulfoxide was recorded over 24 hours in ten patients.
Ten patients took part in this study. The total S-methylcysteine sulfoxide excreted represented 23% of that consumed.
A dietary intervention study was carried out on healthy subjects (n=10) whereby a single event of dietary supplementation was carried out with Beneforte™ broccoli and stilton soup, produced according to the recipe as described in Example 1, providing an effective SMCSO dose of 1.2 mmoles. This was followed by urine and blood collection over 24 h. Plasma and urinary concentrations of SMCSO were measured, see FIGS. 5 (plasma) and 6 (urine). SMCSO concentration in blood plasma increased from a baseline level of 0 μM at the start of the 24 h period to a maximum concentration of 24 μM one hour after consumption of the soup. […] The 24 h cumulative urinary concentration was over 100 μmoles SMCSO.

The subject of data set [2] is Human prostate PNT1A cells. Nature of the data set: Cell assay of SMCSO uptake/accumulation in cells (HPLC of whole cell lysates). In kind it is cell-based. Particulars: 300 μM SMCSO. The procedure: PNT1A cells were treated with 300μM SMCSO and intracellular levels of SMCSO were quantified following incubation of between 1 h and 72 h. Data shown are means±SD (n=3).
Human prostate PNT1A cells were incubated with 300 μM SMCSO for up to 72 h in triplicate. Whole cell lysates were collected at regular intervals between 0 and 72 h and levels of SMCSO were quantified by HPLC as above. […] Uptake increases up to approximately 30% following 72 h of exposure to SMCSO.

In data set [3] the test system is human prostatic PNT1A cell line. Nature of the data set: ATP levels in prostate cell assay (fluorimetric kit). In kind it is cell-based. The following applies: SMCSO 100 μM or 200 μM, 24 hours exposure, vs control cells. The procedure: The concentration of S-methylsulfoxide used in this study (100 μmol to 200 μmop was similar to that found in urine following consumption of 1.0-1.5 mmoles of S-methylcysteine sulfoxide.
Cells of the human prostatic PNT1A cell line were incubated with SMCSO at 100 μM or 200 μM, these concentrations were chosen as they were consistent with the physiological concentrations of SMCSO measured in the human intervention diet study, for example 2-4 hours after consumption of Beneforté™ broccoli soup the concentration of SMCSO in the urine of study subjects ranged from 42.18 μM to 130.17 μM, see Table 1. ATP levels (nmol/mg protein) in control and SMCSO treated cells were measured fluorimetrically using a commercially available kit (Abcam, ab 8335).

The next data set concerns prostate tissue. Nature of the data set: Short duration (4-6 weeks) diet intervention study: SMCSO and ADP in prostate biopsy tissue. The data set is classed as in vivo, human. The following applies: three 300 g portions per week (6.4 mmoles SMCSO each) for at least 4 weeks, n=9 per arm, p=0.005. From the text:
A two arm parallel un-blinded short-term intervention with an enhanced dose of broccoli soups was undertaken. The study recruited men who had been diagnosed or were under investigation for prostate cancer and required a transperineal template biopsy as part of their standard clinical care.
Patients recruited onto this study were randomly allocated to one of two arms in which they were required to consume three portions of broccoli and stilton soup per week for at least four weeks prior to their biopsy (i) or to follow their normal diet until the operation date (ii). The broccoli and stilton soups contained glucoraphanin-enriched Beneforte® broccoli. The study was not blinded and involved tissue, blood and urine collection on the same day that patients were scheduled for their diagnostic biopsy. Their habitual intake of cruciferous vegetables and dietary supplements was assessed. […]
SMCSO was measured by following the method described by Bernaert and colleagues (Bernaert, N., et al., Influence of cultivar and harvest time on the amounts of isoalliin and methiin in leek (Allium ampeloprasum var. porrum). J Agric Food Chem, 2012. 60(44): p. 10910-9). […] After centrifugation, the supernatant was diluted with 0.1% formic acid in water, and analysed by LC-MS/MS using an Agilent 6490 mass spectrometer with a photodiode array detector. […]

For data set [4] the following is noted: within 24 h, radioactive SMCSO to humans; cited from earlier work.

Here are results for one substance from US20190083437A1, “S- Methylcysteine Sulfoxide For Prostate Cancer Prevention And Treatment” (QUADRAM INSTITUTE BIOSCIENCE, priority 2016, published 2019).

For the substance S-methylcysteine sulfoxide [SMCSO], the “concentration of SMCSO in urine (up to)” value in data set [1] (0-2 h after consumption, 1.2 mmoles SMCSO) is recorded as “up to 164 uM”. Moreover, in data set [1] (0-2 h after consumption, estimate), the “likely concentration of SMCSO within a single urination” value is above 200 µM. In addition, the “blood plasma levels at the end of the 24 h period” value in data set [1] (1.2 mmoles SMCSO, 24 h) is listed as “remained elevated above baseline”. For the same substance, the “cumulative urinary SMCSO, mean” value in data set [1] (2-4 hours after dietary supplementation, 1.2 mmoles SMCSO) came out at 71.5 µmol. The “24 h cumulative urinary SMCSO” value in data set [1] (24 h, 1.2 mmoles SMCSO) is recorded as “over 100 μmoles”. In addition, in data set [1] (first 0-2 hours, soup containing 1.2 mmoles), the “S-methylcysteine sulfoxide excreted in urine (concentration, up to)” value was “up to 163.9 μM”. Moreover, in data set [1] (healthy subjects n=10, 1.2 mmoles SMCSO), the “time of maximum plasma concentration after consumption of the soup” value is on record as “one”. For the same substance, in data set [1] (healthy subjects n=10, single soup portion providing 1.2 mmoles SMCSO, oral), the “maximum SMCSO concentration in blood plasma” value is 24 µM. In data set [1] (ten patients, 1.2 mmoles, cumulative), the “total S-methylcysteine sulfoxide excreted in urine as share of that consumed” value came to 23%. Further, the “cellular uptake of SMCSO (speed)” value in data set [2] is “rapid, as early as 1 h”. The “intracellular SMCSO uptake as % of exposure” value in data set [2] (72 h of exposure) is “approximately 30%”. The “intracellular SMCSO level as % of the initial exposure levels” value in data set [2] (constant from 1 h for at least 24 h) came out at 10%. The “cellular concentration of ATP” value in data set [3] is reported as “reduced”. Besides, in the data set on prostate tissue, the “SMCSO accumulation in prostate biopsy tissue, intervention vs non-intervention arm” value was “increased accumulation”. For the same substance, the “SMCSO excreted un-metabolised within urine” value in data set [4] is given as 6-8%.
